Data as given in ChEMBL document CHEMBL1201862, “PubChem BioAssay data set” (2004).
Activity calls are given as the source filed them.

Experiments:
[1] = molecular target: T1, Neuropeptide Y receptor type 1 (Homo sapiens, UniProt P25929); assay type: functional;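 also: HEK293 cells with a CNG channel challenged with NPY then isoproterenol; potency as antagonist that reverses NPY suppression of cAMP signal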
T1 sequence (P25929 whole entry): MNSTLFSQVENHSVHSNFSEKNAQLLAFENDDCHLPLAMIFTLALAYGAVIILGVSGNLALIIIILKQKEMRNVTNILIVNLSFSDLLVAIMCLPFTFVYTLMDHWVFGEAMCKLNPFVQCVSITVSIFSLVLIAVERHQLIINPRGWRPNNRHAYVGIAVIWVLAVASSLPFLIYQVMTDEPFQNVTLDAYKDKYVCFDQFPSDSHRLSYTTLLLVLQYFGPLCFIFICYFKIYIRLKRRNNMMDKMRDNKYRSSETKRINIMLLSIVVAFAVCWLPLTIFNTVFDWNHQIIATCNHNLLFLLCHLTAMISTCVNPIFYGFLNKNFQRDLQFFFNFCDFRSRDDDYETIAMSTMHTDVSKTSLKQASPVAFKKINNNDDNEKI

[2] = molecular target: T2, High affinity choline transporter 1 (Homo sapiens, UniProt Q9GZV3); test: human choline transporter potentiators, potency – cell-based, 10-point CRC, membrane potential dye, dose response (AID 602376); assay type: functional
T2 sequence (Q9GZV3 whole entry): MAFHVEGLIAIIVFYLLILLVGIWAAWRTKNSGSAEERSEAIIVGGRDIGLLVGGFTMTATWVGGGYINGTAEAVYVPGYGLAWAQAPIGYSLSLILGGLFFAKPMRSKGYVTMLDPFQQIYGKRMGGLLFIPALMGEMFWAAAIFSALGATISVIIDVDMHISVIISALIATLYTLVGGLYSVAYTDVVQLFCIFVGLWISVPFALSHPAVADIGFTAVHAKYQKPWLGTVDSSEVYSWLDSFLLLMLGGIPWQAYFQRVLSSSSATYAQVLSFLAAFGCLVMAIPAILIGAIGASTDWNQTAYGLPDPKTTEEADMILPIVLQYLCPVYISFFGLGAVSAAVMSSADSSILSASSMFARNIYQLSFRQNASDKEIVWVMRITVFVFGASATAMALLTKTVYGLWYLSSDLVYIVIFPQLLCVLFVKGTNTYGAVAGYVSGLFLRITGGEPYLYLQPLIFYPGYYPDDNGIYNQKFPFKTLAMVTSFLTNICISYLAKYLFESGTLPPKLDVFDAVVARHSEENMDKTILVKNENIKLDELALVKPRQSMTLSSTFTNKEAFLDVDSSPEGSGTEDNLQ

[3] = molecular target: T3, Neuropeptide Y receptor type 2 (Homo sapiens, UniProt P49146); assay type: functional, cell-based;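 also: HEK293 cells expressing the receptor and a CNG channel; stimulus was NPY near EC95 followed by isoproterenol to raise cAMP; antagonist potency measured as restoring cAMP signal that NPY suppresses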
T3 sequence (P49146 whole entry): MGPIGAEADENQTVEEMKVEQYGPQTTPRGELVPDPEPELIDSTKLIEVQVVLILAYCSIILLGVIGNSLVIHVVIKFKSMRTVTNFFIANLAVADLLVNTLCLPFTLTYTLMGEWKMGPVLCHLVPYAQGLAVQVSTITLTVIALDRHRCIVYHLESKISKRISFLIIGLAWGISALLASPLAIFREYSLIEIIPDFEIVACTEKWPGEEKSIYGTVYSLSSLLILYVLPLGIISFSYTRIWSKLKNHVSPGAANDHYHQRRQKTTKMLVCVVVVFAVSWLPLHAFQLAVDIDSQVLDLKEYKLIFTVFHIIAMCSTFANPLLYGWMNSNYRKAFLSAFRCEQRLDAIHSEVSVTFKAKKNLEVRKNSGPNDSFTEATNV

[4] = molecular target: Protein disulfide-isomerase (Homo sapiens, UniProt P07237); test: inhibition of PDI-driven insulin aggregation – biochemical, turbidity, absorbance, cherry-picked samples, dose response (AID 602350); assay type: functional
Chain of Protein disulfide-isomerase (P07237 whole entry): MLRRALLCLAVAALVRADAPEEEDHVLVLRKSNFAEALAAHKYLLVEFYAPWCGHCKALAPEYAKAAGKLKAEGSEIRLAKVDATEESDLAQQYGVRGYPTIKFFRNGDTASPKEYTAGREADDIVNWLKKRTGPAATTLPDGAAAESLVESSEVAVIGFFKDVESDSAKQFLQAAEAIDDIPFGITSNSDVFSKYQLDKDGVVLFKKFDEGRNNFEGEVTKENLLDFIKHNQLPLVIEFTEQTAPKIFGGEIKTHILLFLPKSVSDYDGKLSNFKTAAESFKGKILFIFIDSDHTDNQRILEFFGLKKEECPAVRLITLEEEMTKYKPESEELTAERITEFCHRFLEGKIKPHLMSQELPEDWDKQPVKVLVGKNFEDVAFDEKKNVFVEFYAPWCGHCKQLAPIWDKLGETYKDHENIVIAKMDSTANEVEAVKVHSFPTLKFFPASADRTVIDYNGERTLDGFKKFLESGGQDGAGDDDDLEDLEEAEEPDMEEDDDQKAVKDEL

[5] = molecular target: Cytochrome P450 2D6 (Homo sapiens, UniProt P10635);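 also: CYP2D6 member of a cytochrome P450 panel assay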
Chain of Cytochrome P450 2D6 (P10635 whole entry): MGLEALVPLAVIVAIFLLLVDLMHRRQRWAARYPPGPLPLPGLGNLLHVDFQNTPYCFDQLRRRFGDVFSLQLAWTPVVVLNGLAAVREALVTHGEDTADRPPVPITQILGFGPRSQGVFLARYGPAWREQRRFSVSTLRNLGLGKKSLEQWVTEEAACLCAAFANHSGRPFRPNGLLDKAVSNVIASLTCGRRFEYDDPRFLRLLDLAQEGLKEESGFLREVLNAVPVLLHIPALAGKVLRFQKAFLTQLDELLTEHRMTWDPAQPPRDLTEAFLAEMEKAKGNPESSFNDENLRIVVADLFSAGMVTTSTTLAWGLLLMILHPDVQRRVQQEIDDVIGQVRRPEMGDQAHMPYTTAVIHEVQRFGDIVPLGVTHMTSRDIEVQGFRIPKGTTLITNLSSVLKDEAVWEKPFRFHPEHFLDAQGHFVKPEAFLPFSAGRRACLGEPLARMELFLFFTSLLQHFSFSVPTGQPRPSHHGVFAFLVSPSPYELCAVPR

[6] = molecular target: Glycogen synthase kinase-3 alpha (Homo sapiens, UniProt P49840); test: Inhibition of Human GSK-3 alpha Activity Measured in Biochemical System Using Microfluidics - 2063-06_Inhibitor_Dose_DryPowder_Activity_Set2. [Related pubchem assays (depositor defined):AID2709]
Chain of Glycogen synthase kinase-3 alpha (P49840 whole entry): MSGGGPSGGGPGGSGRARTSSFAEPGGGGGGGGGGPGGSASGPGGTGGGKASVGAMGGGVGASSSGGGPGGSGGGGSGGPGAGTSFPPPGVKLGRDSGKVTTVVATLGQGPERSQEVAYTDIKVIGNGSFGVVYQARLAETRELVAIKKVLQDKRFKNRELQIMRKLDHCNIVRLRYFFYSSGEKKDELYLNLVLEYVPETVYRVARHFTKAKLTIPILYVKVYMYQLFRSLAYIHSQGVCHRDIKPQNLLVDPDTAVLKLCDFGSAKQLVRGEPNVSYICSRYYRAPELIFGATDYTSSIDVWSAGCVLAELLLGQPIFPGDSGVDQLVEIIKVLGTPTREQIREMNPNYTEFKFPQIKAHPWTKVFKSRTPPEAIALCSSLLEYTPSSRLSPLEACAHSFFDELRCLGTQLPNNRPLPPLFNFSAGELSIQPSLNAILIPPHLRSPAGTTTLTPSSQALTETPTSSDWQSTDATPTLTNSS

[7] = molecular target: Glycogen synthase kinase-3 beta (Homo sapiens, UniProt P49841); test: Inhibition of Human GSK-3 beta Activity Measured in Biochemical System Using Microfluidics - 2063-05_Inhibitor_Dose_DryPowder_Activity_Set2. [Related pubchem assays (depositor defined):AID2709]
Chain of Glycogen synthase kinase-3 beta (P49841 whole entry): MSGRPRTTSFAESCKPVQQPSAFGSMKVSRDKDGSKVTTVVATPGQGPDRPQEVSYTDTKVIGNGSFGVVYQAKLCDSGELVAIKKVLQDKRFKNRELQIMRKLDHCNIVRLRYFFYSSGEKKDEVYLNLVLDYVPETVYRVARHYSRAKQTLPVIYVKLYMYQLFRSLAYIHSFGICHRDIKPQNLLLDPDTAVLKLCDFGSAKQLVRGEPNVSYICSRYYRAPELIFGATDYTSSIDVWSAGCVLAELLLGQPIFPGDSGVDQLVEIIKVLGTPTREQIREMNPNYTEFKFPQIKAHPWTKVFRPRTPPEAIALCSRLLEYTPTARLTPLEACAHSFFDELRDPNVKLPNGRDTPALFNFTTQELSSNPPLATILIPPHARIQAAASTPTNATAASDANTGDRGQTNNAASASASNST

[8] = molecular target: Cytochrome P450 2C9 (Homo sapiens, UniProt P11712)
Chain of Cytochrome P450 2C9 (P11712 whole entry): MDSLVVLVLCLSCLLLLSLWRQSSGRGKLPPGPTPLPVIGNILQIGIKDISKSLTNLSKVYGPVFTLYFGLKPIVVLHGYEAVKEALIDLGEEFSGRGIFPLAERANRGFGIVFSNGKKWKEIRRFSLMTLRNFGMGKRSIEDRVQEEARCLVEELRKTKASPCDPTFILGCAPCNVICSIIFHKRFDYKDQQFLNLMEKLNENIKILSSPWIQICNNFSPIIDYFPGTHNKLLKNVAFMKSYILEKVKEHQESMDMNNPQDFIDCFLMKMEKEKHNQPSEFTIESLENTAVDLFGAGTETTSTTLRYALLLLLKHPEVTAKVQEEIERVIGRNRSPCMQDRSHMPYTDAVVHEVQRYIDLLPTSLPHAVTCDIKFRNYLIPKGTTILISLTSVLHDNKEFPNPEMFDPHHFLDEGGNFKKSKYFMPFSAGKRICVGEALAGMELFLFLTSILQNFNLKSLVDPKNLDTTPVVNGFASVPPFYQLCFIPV

[9] = molecular target: T4, Sentrin-specific protease 8 (Homo sapiens, UniProt Q96LD8); test: inhibition of sentrin protease 8 – biochemical, luminescence, set 2, SAR follow-up (AID 588601); assay type: functional
T4 sequence (Q96LD8 whole entry): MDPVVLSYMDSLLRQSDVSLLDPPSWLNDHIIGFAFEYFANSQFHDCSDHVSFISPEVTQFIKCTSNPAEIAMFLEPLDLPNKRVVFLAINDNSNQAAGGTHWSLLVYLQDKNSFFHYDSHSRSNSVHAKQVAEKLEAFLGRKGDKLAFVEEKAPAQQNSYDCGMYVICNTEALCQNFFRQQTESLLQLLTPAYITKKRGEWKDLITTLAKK

[10] = molecular target: T5, Sentrin-specific protease 7 (Homo sapiens, UniProt Q9BQF6); test: inhibition of human SENP7 cleavage activity – biochemical, luminescence, set 2, SAR follow-up (AID 588600); assay type: functional
T5 sequence (Q9BQF6 whole entry): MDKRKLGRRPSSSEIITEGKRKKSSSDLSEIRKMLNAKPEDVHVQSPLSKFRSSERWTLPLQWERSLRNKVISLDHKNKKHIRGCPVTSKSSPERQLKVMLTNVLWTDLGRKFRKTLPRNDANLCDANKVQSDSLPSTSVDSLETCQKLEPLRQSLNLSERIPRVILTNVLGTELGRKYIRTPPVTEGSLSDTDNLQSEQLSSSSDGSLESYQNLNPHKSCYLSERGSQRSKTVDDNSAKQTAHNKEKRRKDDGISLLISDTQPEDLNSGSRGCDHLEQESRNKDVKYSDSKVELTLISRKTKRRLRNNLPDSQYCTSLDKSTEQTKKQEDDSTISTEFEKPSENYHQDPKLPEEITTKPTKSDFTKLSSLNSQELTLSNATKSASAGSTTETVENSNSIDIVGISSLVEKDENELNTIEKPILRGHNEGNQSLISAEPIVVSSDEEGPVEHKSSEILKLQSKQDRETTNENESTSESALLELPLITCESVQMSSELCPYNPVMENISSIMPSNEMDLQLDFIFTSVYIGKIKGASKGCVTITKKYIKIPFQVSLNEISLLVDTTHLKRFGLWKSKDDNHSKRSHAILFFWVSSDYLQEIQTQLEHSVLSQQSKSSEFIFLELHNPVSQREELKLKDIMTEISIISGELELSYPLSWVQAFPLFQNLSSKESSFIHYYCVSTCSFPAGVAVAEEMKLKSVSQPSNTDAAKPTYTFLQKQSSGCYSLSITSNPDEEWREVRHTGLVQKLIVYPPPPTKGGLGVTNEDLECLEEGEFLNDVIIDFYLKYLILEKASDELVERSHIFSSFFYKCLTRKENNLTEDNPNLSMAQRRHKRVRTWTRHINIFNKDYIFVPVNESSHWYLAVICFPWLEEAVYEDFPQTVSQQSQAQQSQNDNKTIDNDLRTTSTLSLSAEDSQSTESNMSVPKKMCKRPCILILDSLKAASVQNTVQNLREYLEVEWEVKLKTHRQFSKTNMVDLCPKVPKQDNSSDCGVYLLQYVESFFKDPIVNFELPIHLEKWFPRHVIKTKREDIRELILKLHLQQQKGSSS

[11] = molecular target: T6, Caspase-3 (Homo sapiens, UniProt P42574); test: inhibition of recombinant caspase-3 activity – biochemical, luminescence, set 2, selectivity assay for SENP protease inhibitor project, SAR follow-up (AID 588599); assay type: functional
T6 sequence (P42574 whole entry): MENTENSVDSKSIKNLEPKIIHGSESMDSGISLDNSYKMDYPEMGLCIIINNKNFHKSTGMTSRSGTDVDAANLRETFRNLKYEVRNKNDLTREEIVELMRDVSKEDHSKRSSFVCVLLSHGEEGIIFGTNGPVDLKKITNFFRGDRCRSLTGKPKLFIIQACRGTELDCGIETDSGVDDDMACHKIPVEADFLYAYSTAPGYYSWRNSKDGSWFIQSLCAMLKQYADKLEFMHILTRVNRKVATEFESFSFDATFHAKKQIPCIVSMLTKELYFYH

[12] = molecular target: T7, Sentrin-specific protease 6 (Homo sapiens, UniProt Q9GZR1); test: inhibition of human SENP6 catalytic domain – biochemical, luminescence, set 2, SAR follow-up (AID 588598); assay type: functional
T7 sequence (Q9GZR1 whole entry): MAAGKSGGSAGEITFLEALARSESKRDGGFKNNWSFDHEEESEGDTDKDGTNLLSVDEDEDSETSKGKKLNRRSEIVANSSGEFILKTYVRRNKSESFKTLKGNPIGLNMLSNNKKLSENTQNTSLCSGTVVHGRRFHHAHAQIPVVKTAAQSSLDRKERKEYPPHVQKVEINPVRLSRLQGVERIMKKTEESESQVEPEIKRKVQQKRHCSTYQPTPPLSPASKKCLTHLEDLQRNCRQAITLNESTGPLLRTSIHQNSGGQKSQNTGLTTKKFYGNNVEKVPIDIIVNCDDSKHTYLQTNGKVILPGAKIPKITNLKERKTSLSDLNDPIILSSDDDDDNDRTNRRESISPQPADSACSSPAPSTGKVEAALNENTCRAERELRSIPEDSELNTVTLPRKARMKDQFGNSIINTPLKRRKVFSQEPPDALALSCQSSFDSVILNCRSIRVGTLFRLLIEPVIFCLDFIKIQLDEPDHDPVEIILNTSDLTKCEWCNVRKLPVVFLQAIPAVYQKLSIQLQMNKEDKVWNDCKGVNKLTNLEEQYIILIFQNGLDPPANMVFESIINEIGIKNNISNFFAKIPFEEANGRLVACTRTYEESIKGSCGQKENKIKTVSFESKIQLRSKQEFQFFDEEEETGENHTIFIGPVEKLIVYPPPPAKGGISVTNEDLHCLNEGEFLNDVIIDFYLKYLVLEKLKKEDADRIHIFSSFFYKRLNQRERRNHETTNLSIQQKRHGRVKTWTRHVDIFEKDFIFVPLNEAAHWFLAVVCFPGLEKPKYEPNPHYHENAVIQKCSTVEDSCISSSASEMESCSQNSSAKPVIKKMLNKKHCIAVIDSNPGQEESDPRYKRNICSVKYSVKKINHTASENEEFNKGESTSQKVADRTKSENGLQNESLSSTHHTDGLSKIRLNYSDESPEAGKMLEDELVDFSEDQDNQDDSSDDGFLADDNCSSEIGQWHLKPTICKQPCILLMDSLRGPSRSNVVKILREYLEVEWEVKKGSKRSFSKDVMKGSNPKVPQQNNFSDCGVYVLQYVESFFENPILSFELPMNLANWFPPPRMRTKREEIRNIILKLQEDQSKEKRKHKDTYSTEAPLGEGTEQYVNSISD

[13] = molecular target: Vascular endothelial growth factor receptor 2 (Homo sapiens, UniProt P35968); assay type: functional
Chain of Vascular endothelial growth factor receptor 2 (P35968 whole entry): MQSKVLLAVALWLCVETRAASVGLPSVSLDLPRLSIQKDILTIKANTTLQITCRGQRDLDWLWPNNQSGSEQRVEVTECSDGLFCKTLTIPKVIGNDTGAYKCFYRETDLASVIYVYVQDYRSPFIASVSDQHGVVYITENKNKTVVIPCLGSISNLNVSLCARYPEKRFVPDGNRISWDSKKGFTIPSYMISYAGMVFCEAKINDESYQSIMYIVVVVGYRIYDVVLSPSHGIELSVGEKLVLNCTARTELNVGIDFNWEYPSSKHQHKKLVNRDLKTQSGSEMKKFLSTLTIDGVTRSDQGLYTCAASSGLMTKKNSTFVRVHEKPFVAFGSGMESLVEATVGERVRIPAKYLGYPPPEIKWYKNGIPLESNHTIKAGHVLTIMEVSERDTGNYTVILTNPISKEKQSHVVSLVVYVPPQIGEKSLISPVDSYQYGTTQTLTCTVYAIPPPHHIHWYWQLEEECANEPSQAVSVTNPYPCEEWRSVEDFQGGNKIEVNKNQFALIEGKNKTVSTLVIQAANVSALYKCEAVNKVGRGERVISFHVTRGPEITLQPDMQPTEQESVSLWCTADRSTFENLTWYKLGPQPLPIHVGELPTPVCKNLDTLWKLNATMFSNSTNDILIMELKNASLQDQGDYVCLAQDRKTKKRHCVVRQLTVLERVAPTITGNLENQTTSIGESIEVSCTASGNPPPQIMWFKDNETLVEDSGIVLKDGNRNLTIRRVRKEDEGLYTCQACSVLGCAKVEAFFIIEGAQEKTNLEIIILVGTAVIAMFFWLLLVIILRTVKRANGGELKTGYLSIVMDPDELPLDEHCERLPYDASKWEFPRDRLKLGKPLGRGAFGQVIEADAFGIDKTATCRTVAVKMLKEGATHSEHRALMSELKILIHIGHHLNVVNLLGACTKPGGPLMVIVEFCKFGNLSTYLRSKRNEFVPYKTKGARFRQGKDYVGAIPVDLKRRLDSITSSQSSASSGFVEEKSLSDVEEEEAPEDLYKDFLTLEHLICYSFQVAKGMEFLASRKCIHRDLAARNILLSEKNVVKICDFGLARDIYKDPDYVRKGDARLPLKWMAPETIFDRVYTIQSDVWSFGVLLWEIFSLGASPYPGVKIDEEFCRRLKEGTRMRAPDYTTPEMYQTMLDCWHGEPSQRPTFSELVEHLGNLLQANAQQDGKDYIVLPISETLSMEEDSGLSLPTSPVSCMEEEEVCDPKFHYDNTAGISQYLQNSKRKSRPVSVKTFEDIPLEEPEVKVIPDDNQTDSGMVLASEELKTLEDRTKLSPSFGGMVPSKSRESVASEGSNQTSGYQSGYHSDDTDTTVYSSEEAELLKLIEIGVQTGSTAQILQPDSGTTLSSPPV

[14] = molecular target: Aurora kinase B (Homo sapiens, UniProt Q96GD4); assay type: functional
Chain of Aurora kinase B (Q96GD4 whole entry): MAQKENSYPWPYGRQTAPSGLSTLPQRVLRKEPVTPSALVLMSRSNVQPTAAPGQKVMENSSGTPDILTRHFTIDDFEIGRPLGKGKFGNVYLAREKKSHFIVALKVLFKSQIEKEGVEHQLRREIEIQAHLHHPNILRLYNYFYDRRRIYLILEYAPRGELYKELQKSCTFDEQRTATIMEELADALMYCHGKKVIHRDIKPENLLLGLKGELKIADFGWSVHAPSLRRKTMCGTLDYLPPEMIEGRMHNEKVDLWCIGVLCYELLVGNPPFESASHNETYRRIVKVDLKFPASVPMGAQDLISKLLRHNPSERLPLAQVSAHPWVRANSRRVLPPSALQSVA

CCC1=Nc2ccc(Br)cc2C(c2ccccc2)N1CC(=O)OC (centres undefined)
IC50 [1]: 13.2 µM (not active)
EC50 [2]: 14.3 µM (active)
IC50 [3]: > 35 µM (not active)

C[C@@H]1O[C@@H](O[C@@H]2C(=O)c3c(O)cc(O)cc3O[C@H]2c2ccc(O)c(O)c2)[C@H](O)[C@H](O)[C@H]1O
AC50 [4]: 10.2 µM (active)

Cn1c(SCc2nnc(-c3ccc(F)cc3)o2)nnc1C1COc2ccccc2O1 (centres undefined)
AC50 [5]: 5.01 µM (inconclusive)
AC50 [6]: 1.33 µM (active)
AC50 [7]: 0.7 µM (active)
AC50 [8]: inconclusive

Cc1ccc(-c2cc(CNC(=O)C(=O)c3c[nH]c4ccccc34)no2)cc1
IC50 [9]: > 99 µM (inactive)
IC50 [10]: > 99 µM (inactive)
IC50 [11]: > 99 µM (inactive)
IC50 [12]: > 99 µM (inactive)

COc1ccc(-c2cc(-c3ccccc3)nc3ncnc(NC(=O)COCC(=O)O)c23)cc1
Ki [13]: 1.26 µM (active)
Ki [14]: 1.26 µM (active)
